# Measured values reported in ChEMBL document CHEMBL4715829, “Heterodimeric Rifampicin-Tobramycin conjugates break intrinsic resistance of Pseudomonas aeruginosa to doxycycline and chloramphenicol in vitro and in a Galleria mellonella in vivo model” (Eur J Med Chem, 2019).
# How the values were obtained:
# Pseudomonas aeruginosa [1] = assay: Antibacterial activity against Pseudomonas aeruginosa 260-97103 assessed as fractional inhibitory concentration incubated for 18 hrs in presence of doxycycline by broth microdilution assay; type: functional
# Pseudomonas aeruginosa [2] = assay: Antibacterial activity against Pseudomonas aeruginosa 91433 assessed as fractional inhibitory concentration in presence of chloramphenicol incubated for 18 hrs by broth microdilution assay; type: functional
# Klebsiella pneumoniae [3] = assay: Potentiation of doxycycline-induced antibacterial activity against Klebsiella pneumoniae ATCC 16381 assessed as fold change in doxycycline MIC at 9.8 uM incubated for 18 hrs in presence of doxycycline by broth microdilution assay relative to control; type: functional
# HepG2 = assay: Cytotoxicity against human HepG2 cells assessed as cell viability at 50 uM incubated for 48 hrs in presence of chloramphenicol by prestoblue assay; type: cell-based; details: hepg2, 48 h
# Acinetobacter baumannii = assay: Potentiation of chloramphenicol-induced antibacterial activity against Acinetobacter baumannii ATCC 17978 assessed as fold change in chloramphenicol MIC at 9.8 uM incubated for 18 hrs in presence of chloramphenicol by broth microdilution assay relative to control; type: functional
# Pseudomonas aeruginosa [4] = assay: Antibacterial activity against Pseudomonas aeruginosa 264-101354 assessed as potentiation of chloramphenicol-induced antibacterial activity by measuring chloramphenicol MIC at 9.8 uM incubated for 18 hrs in presence of chloramphenicol by broth microdilution assay (reference value: 4096 ug/ml); type: functional
# Pseudomonas aeruginosa [5] = assay: Antibacterial activity against Pseudomonas aeruginosa 264-101354 assessed as potentiation of doxycycline-induced antibacterial activity by measuring doxycycline MIC at 9.8 uM incubated for 18 hrs in presence of doxycycline by broth microdilution assay (reference value: 64 ug/ml); type: functional
# HEK293 = assay: Cytotoxicity against human HEK293 cells assessed as cell viability at 50 uM incubated for 48 hrs in presence of doxycycline by prestoblue assay; type: cell-based; details: hek293, 48 h
# Pseudomonas aeruginosa [6] = assay: Antibacterial activity against Pseudomonas aeruginosa 260-97103 infected in Galleria mellonella larvae assessed as survival of larvae at 100 mg/kg treated at 3 hrs post-infection in presence of doxycycline and measured after 24 hrs relative to control; type: functional
# Pseudomonas aeruginosa [7] = assay: Antibacterial activity against Pseudomonas aeruginosa 260-97103 assessed as fractional inhibitory concentration incubated for 18 hrs in presence of tigecycline by broth microdilution assay; type: functional
# Pseudomonas aeruginosa [8] = assay: Antibacterial activity against Pseudomonas aeruginosa 91433 assessed as potentiation of chloramphenicol-induced antibacterial activity by measuring chloramphenicol MIC at 9.8 uM incubated for 18 hrs in presence of chloramphenicol by broth microdilution assay (reference value: 8 ug/ml); type: functional
# Pseudomonas aeruginosa [9] = assay: Antibacterial activity against Pseudomonas aeruginosa 114228 assessed as fractional inhibitory concentration index incubated for 18 hrs in presence of tigecycline by broth microdilution assay; type: functional
# Pseudomonas aeruginosa [10] = assay: Antibacterial activity against Pseudomonas aeruginosa 100036 assessed as fractional inhibitory concentration incubated for 18 hrs in presence of tigecycline by broth microdilution assay; type: functional
# Pseudomonas aeruginosa [11] = assay: Antibacterial activity against Pseudomonas aeruginosa 262-101856 assessed as fractional inhibitory concentration index incubated for 18 hrs in presence of rifampicin by broth microdilution assay; type: functional
# Pseudomonas aeruginosa [12] = assay: Potentiation of chloramphenicol-induced antibacterial activity against Pseudomonas aeruginosa 114228 assessed as fold change in chloramphenicol MIC at 9.8 uM incubated for 18 hrs in presence of chloramphenicol by broth microdilution assay relative to control; type: functional
# Pseudomonas aeruginosa [13] = assay: Potentiation of doxycycline-induced antibacterial activity against Pseudomonas aeruginosa 262-101856 assessed as fold change in doxycycline MIC at 7.6 uM incubated for 18 hrs in presence of doxycycline by broth microdilution assay relative to control; type: functional
# Pseudomonas aeruginosa [14] = assay: Antibacterial activity against Pseudomonas aeruginosa 262-101856 assessed as potentiation of chloramphenicol-induced antibacterial activity by measuring chloramphenicol MIC at 7.6 uM incubated for 18 hrs in presence of chloramphenicol by broth microdilution assay (reference value: 2048 ug/ml); type: functional
# Pseudomonas aeruginosa [15] = assay: Potentiation of chloramphenicol-induced antibacterial activity against Pseudomonas aeruginosa 101885 assessed as fold change in chloramphenicol MIC at 7.6 uM incubated for 18 hrs in presence of chloramphenicol by broth microdilution assay relative to control; type: functional
# Pseudomonas aeruginosa [16] = assay: Antibacterial activity against Pseudomonas aeruginosa 264-101354 assessed as potentiation of doxycycline-induced antibacterial activity by measuring doxycycline MIC at 7.6 uM incubated for 18 hrs in presence of doxycycline by broth microdilution assay (reference value: 64 ug/ml); type: functional
# Pseudomonas aeruginosa [17] = assay: Potentiation of chloramphenicol-induced antibacterial activity against Pseudomonas aeruginosa 91433 assessed as fold change in chloramphenicol MIC at 7.6 uM incubated for 18 hrs in presence of chloramphenicol by broth microdilution assay relative to control; type: functional
# Pseudomonas aeruginosa [18] = assay: Potentiation of chloramphenicol-induced antibacterial activity against Pseudomonas aeruginosa 101243 assessed as fold change in chloramphenicol MIC at 7.6 uM incubated for 18 hrs in presence of chloramphenicol by broth microdilution assay relative to control; type: functional
# Pseudomonas aeruginosa [19] = assay: Antibacterial activity against Pseudomonas aeruginosa 260-97103 assessed as potentiation of doxycycline-induced antibacterial activity by measuring doxycycline MIC at 7.6 uM incubated for 18 hrs in presence of doxycycline by broth microdilution assay (reference value: 16 ug/ml); type: functional
# Pseudomonas aeruginosa [20] = assay: Potentiation of chloramphenicol-induced antibacterial activity against Pseudomonas aeruginosa 260-97103 assessed as fold change in chloramphenicol MIC at 7.6 uM incubated for 18 hrs in presence of chloramphenicol by broth microdilution assay relative to control; type: functional
# Pseudomonas aeruginosa [21] = assay: Antibacterial activity against Pseudomonas aeruginosa 262-101856 assessed as potentiation of doxycycline-induced antibacterial activity by measuring doxycycline MIC at 7.6 uM incubated for 18 hrs in presence of doxycycline by broth microdilution assay (reference value: 1024 ug/ml); type: functional
# Klebsiella pneumoniae [22] = assay: Potentiation of chloramphenicol-induced antibacterial activity against Klebsiella pneumoniae ATCC 16381 assessed as fold change in chloramphenicol MIC at 7.6 uM incubated for 18 hrs in presence of chloramphenicol by broth microdilution assay relative to control; type: functional
# Pseudomonas aeruginosa [23] = assay: Antibacterial activity against Pseudomonas aeruginosa 264-101354 assessed as potentiation of chloramphenicol-induced antibacterial activity by measuring chloramphenicol MIC at 7.6 uM incubated for 18 hrs in presence of chloramphenicol by broth microdilution assay (reference value: 4096 ug/ml); type: functional
# Pseudomonas aeruginosa [24] = assay: Potentiation of doxycycline-induced antibacterial activity against Pseudomonas aeruginosa 260-97103 assessed as fold change in doxycycline MIC at 7.6 uM incubated for 18 hrs in presence of doxycycline by broth microdilution assay relative to control; type: functional
# Pseudomonas aeruginosa [25] = assay: Potentiation of chloramphenicol-induced antibacterial activity against Pseudomonas aeruginosa 100036 assessed as fold change in chloramphenicol MIC at 7.6 uM incubated for 18 hrs in presence of chloramphenicol by broth microdilution assay relative to control; type: functional
# Pseudomonas aeruginosa [26] = assay: Antibacterial activity against Pseudomonas aeruginosa 262-101856 assessed as reduction in bacterial growth by measuring chloramphenicol MIC at 16 ug/ml incubated for 18 hrs in presence of chloramphenicol by broth microdilution assay (reference value: 2048 ug/ml); type: functional; details: dose 16 µg/ml
structure (smiles),measurement,setting,value
NC[C@H]1O[C@H](O[C@H]2[C@H](O)[C@@H](O[C@H]3O[C@H](CO)[C@@H](O)[C@H](N)[C@H]3O)[C@H](N)C[C@@H]2N)[C@H](N)C[C@@H]1O [TOBRAMYCIN],FIC,Pseudomonas aeruginosa [1],0.5
same,FIC,Pseudomonas aeruginosa [2],0.5
CO[C@H]1/C=C/O[C@@]2(C)Oc3c(C)c(O)c4c(O)c(c(/C=N/N5CCN(Cc6cn(CCCCCCO[C@@H]7[C@@H](O[C@H]8O[C@H](CO)[C@@H](O)[C@H](N)[C@H]8O)[C@H](N)C[C@H](N)[C@H]7O[C@H]7O[C@H](CN)[C@@H](O)C[C@H]7N)nn6)CC5)c(O)c4c3C2=O)NC(=O)/C(C)=C\C=C\[C@H](C)[C@H](O)[C@@H](C)[C@@H](O)[C@@H](C)[C@H](OC(C)=O)[C@@H]1C.Cl.Cl.Cl.Cl.Cl,fold change (FC),Klebsiella pneumoniae [3],0
same,Activity,HepG2,Non-Toxic
same,fold change (FC),Acinetobacter baumannii,0
same,MIC,Pseudomonas aeruginosa [4],128 µg/mL
same,MIC,Pseudomonas aeruginosa [5],0.125 µg/mL
same,Activity,HEK293,Non-Toxic
same,survival at 100 mg/kg,Pseudomonas aeruginosa [6],75%
same,FIC,Pseudomonas aeruginosa [7],<0.125
same,MIC,Pseudomonas aeruginosa [8],2 µg/mL
same,fractional inhibitory concentration index (FICI),Pseudomonas aeruginosa [9],<0.53
same,FIC,Pseudomonas aeruginosa [10],0.004
same,fractional inhibitory concentration index (FICI),Pseudomonas aeruginosa [11],<0.51
same,fold change (FC),Pseudomonas aeruginosa [12],4
CO[C@H]1/C=C/O[C@@]2(C)Oc3c(C)c(O)c4c(O)c(c(/C=N/N5CCN(Cc6cn(CCCCCCCCCCCCO[C@@H]7[C@@H](O[C@H]8O[C@H](CO)[C@@H](O)[C@H](N)[C@H]8O)[C@H](N)C[C@H](N)[C@H]7O[C@H]7O[C@H](CN)[C@@H](O)C[C@H]7N)nn6)CC5)c(O)c4c3C2=O)NC(=O)/C(C)=C\C=C\[C@H](C)[C@H](O)[C@@H](C)[C@@H](O)[C@@H](C)[C@H](OC(C)=O)[C@@H]1C.O=C(O)C(F)(F)F.O=C(O)C(F)(F)F.O=C(O)C(F)(F)F.O=C(O)C(F)(F)F.O=C(O)C(F)(F)F,fold change (FC),Pseudomonas aeruginosa [13],4
same,MIC,Pseudomonas aeruginosa [14],128 µg/mL
same,fold change (FC),Pseudomonas aeruginosa [15],4
same,MIC,Pseudomonas aeruginosa [16],1 µg/mL
same,fold change (FC),Pseudomonas aeruginosa [17],4
same,fold change (FC),Pseudomonas aeruginosa [18],4
same,MIC,Pseudomonas aeruginosa [19],0.125 µg/mL
same,fold change (FC),Pseudomonas aeruginosa [20],4
same,MIC,Pseudomonas aeruginosa [21],8 µg/mL
same,fold change (FC),Klebsiella pneumoniae [22],0
same,MIC,Pseudomonas aeruginosa [23],128 µg/mL
same,fold change (FC),Pseudomonas aeruginosa [24],4
same,fold change (FC),Pseudomonas aeruginosa [25],4
CO[C@H]1/C=C/O[C@@]2(C)Oc3c(C)c(O)c4c(O)c(c(/C=N/N5CCN(C)CC5)c(O)c4c3C2=O)NC(=O)/C(C)=C\C=C\[C@H](C)[C@H](O)[C@@H](C)[C@@H](O)[C@@H](C)[C@H](OC(C)=O)[C@@H]1C [RIFAMPIN],MIC,Pseudomonas aeruginosa [26],2050 µg/mL
